Reference: US10035816B2, “Compound for treating respiratory syncytial virus infection and preparation method and use thereof” (SHANDONG UNIVERSITY, priority 2016, dated 2018)

Assays:
Assay type in all cases: cell-based
[1] = tested on: Smo-dependent SAG induced gene expression (Hh signal pathway); assay: Hedgehog (Hh) signal pathway inhibition assay, Gli-binding site-luciferase reporter in NIH3T3 cells; conditions: compound 10 uM, SAG 0.5 ìM, control (compound-free, presence of SAG) = 100% gene expression (FIG. 5)
Description: The detection procedure of compound effect on Hh signal pathway inhibiting is as following. NIH3T3 cells are seeded cells in 6 well plates, or 12 well plate one day in advance, with 5% FBS DMEM, without antibiotics per well so that they will be 90˜95% confluent at the time of transfection. Plasmids are diluted with Lipofectamine 2000 (total volume is 100-1000 ìl) and added to each well containing cells and medium, followed by incubation at 37° C. in a CO2 incubator for 48 h. […] At the end of the incubation, cells are washed, lysed and lysate transferred to a 96-well white plate. LAR II reagent is added (from Promega, Dual-luciferase reporter assay system) and samples read in a luminescence reader.
The control (compound-free, presence of SAG) is scored at 100% gene expression.

[2] = tested on: Human respiratory syncytial virus Long strain; assay: RSV replication assay (virus yield / focus titration in HEp-2 cells); conditions: for maximum inhibition effect on RSV replication: compounds tested at 2 ìM and 8 ìM, HEp-2 cells, MOI 0.1, compared with blank control (FIG. 4)
Description: The detection procedure of compound effect on RSV replication inhibiting is as following. Human respiratory syncytial virus Long strain and HEp-2 cells were used for infection assays. Cells were maintained in DMEM, supplemented with penicillin/streptomycin and 10% FBS, and incubated at 37° C., 5% CO2. Virus was passaged in HEp-2 cells in the same conditions, but with 2% FBS. Virus stocks were prepared by infecting confluent HEp-2 cells at a low multiplicity of infection (MOI) of 0.1 for two to three days. Cells and virus-containing supernatant were then subjected to a single freeze/thaw cycle at −80° C. to release cell-bound virus, and the sample was clarified by centrifugation at 2000×g for 10 min at 4° C. The supernatant was homogenized, aliquoted and stored at −20° C.
Compounds were tested either during virus adsorption for 1 h at 4° C. to investigate viral entry, post-adsorption for 72 h at 37° C. to investigate viral propagation and replication, or during all stages of infection. The concentration of compound resulting in 50% inhibition (IC50) of virus replication was determined by focus counting (viral entry) or focus size measurement (viral propagation) and was determined using non-linear regression analysis using GraphPad Prism. To assess the cytotoxicity of compounds, a CellTiter-Glo Luminescent Cell Viability Assay was carried following the manufacturer's instruction in the conditions of the focus reduction assay.
As shown in the figure, compounds were tested at 2 concentrations (2 ìM, 8 ìM) in the RSV replication assay. The control (compound-free) is scored at 100% replication.
Human respiratory syncytial virus Long strain (ATCC reference VR-26) and HEp-2 cells (ATCC reference CCL-23) were used for infection assays. Cells were maintained in DMEM, supplemented with penicillin/streptomycin and 10% FBS, and incubated at 37° C., 5% CO2. Virus was passaged in HEp-2 cells in the same conditions, but with 2% FBS. Virus stocks were prepared by infecting confluent HEp-2 cells at a low multiplicity of infection (MOI) of 0.1 for two to three days. […]

[3] = tested on: RSV replication and Hh activity; assay: Coefficient of inhibition (ICrh): RSV replication inhibition vs. Hh pathway inhibition relative to CPM; conditions: ratio of RSV inhibition to Hh inhibition of the analog divided by the same ratio of CPM; >1 favorable (FIG. 6)
Source text: To assess the differential Hh pathway inhibition vs. replication inhibition of analogs (cpd), we determined a coefficient of inhibition (ICrh).
A score higher than 1 indicates a favorable profile.
The substep of screening compounds is that selecting the compounds with ICrh data larger than 1, and filtering out the compounds with ICrh data smaller than 1. Furthermore, the compounds with larger ICrh data will be selected preferentially.

Molecule	inhibition of SAG-induced gene expression [1]	RSV replication in the presence of compound ([2]; compound-free control scored at 100% replication (FIG. 4))	coefficient of inhibition on RSV replication and Hh activity (ICrh) [3]	maximum inhibition effect on RSV replication [2]
cyclopamine [CPM, reference compound]	56%	0%		
CCNC(=O)O[C@H]1CC[C@@]2(C)C(=CC[C@H]3[C@@H]4CC[C@]5(O[C@@H]6C[C@H](C)CN(C(=O)C(F)(F)F)[C@H]6[C@H]5C)C(C)=C4C[C@@H]32)C1 [S1-2]	36%		1.446	99%
CC1=C2C[C@H]3[C@@H](CC=C4C[C@@H](OC(=O)NC5CC5)CC[C@@]43C)[C@@H]2CC[C@]12O[C@@H]1C[C@H](C)CN(C(=O)C(F)(F)F)[C@H]1[C@H]2C [S1-4]	5%		1.617	88%
